Assay results taken from patent US20110142799A1, “MODULATION OF NEURODEGENERATIVE DISEASE BY MODULATING XBP-1 ACTIVITY” (PRESIDENT AND FELLOWS OF HARVARD COLLEGE, priority 2008, published 2011).

Experiments:
[1] = tested on: mutant SOD1 aggregates in NSC34 cells; assay: High molecular weight, detergent insoluble SOD1 aggregates in NSC34 cells by Western blot; assay type: cell-based, human; details: shXBP-1 and shIRE-1 alpha NSC34 cells expressing SOD1^G85R; 16 h with 10 mM 3-MA or 10 μM wortmannin
Description: Stable motoneuron cell lines with reduced levels of XBP-1, IRE1α, Beclin-1 and EDEM were generated using methods previously described (Hetz et al., 2007) by targeting the respective mRNA with shRNA using the lentiviral expression vector pLKO.1 and puromycin selection. As control empty vector or a shRNA against the luciferase gene were employed. Constructs were generated by The Broad Institute (Boston, USA) based on different criteria for shRNA design (see broad.mit.edu/genome_bio/trc/rnai.html). A total of five different constructs for each gene were screened and the most efficient one was selected for further studies. Targeting sequences identified for the mouse XBP-1, IRE1α, Beclin-1 and EDEM mRNA are 5′-[…]-3′,5′-[…]-3′,5′-[…]-3′,5′-[…]-3′,5′-[…]-3′,5′-[…]-3′, 5′-[…]-3′ and 5′-[…]-3′, respectively. […]
Assays using the transient expression of human SOD1^WT and the mutants SOD1^G93A and SOD1^G85R as EGFP fusion proteins were developed. These constructs were employed to visualize and quantify the formation of intracellular SOD1 inclusions in living cells by fluorescent confocal microscopy. […] SOD1 oligomers were visualized in total cell extracts prepared in RIPA buffer and sonication, and then analyzed by Western blot. […]

[2] = tested on: autophagosomes in NSC34 cells; assay: Autophagosome number (LC3-EGFP dots, electron microscopy) in NSC34 cells; assay type: cell-based; details: shXBP-1 cells, 16 h with 10 mM 3-MA
Method: Lysosomes or acidic compartments were visualized with two different assays. Living cells were stained with 200 nM lysotraker or 600 nM Acridine orange for 45 min at 37 C and 5% CO2. Cells were washed three times with cold PBS and then fixed for 30 min with 4% formaldehyde on ice, then maintained in PBS containing 0.4% formaldehyde for visualization on a confocal microscope. Autophagosomes were visualized after the expression of LC3-EGFP (Kabeya et al., 2000. EMBO J. 19, 5720-5728) or LC3-dsRED after the transient transfection of low amount of DNA (⅓ amount of recommended concentrations by transfection kit). As control experiments, cells were treated with 10 mM 3-MA autophagy inhibitor. All quantifications were performed at least in a total of 150 cells performed in duplicate for each independent experiment.
Autophagosomes were also visualized by transmission electron microscopy. Cells were fixed with 1.25% formaldehyde, 2.5% glutaraldehyde, 0.03% picric acid in 100 mM sodium cacodylate buffer. After washing with 100 mM sodium cacodylate buffer, tissues were treated for 1 h with 1% osmium tetroxide and 1.5% potassium ferrocyanide, and then 30 min with 0.5% uranyl acetate in 50 mM maleate buffer, pH 5.15. After dehydration in ethanol, cells were treated for 1 h in propylenoxide and then embedded in Epon/Araldite resin. […]

Cn1cnc(N)c2ncnc1-2 [3-MA, 3-methyladenine]
SOD1 aggregation after PI3-kinase / autophagy inhibitor [1]: recovery of mutant SOD1 aggregation in knockdown cells
number of cells containing more than four autophagosomes per cell after 3-MA [2]: decreased
